Experimental data as given in paper PMC8177795 (Cancer Science, 2021).
Values joined by “and” are separate entries in the source; they are usually repeats but may differ in a detail not shown here. Equal entries are not always repeated.

Key:
BTK = conditions: no reference given; cited from earlier work
[1] = Plasma pharmacokinetics of acalabrutinib and ACP‐5862; format: in vivo, Japanese patients; conditions: for M/P ratio (metabolite to parent), AUC / M/P ratio (metabolite to parent), AUC0–12 / M/P ratio (metabolite to parent), AUC0–t / M/P ratio (metabolite to parent), Cmax: part 1
[2] = multiple dose 100 mg BID, day 8, part 1
[3] = multiple dose 100 mg BID, day 8, part 1, fasting
[4] = single dose 100 mg acalabrutinib, part 1, fasting

RAC (extent of accumulation on multiple dosing), Amean ± SD [1, 2]: 2.72 and 2.722 ± 2.826
TC (time dependency of pharmacokinetics), Amean ± SD [1, 2]: 1.444 ± 0.8136
AUC0–12, Gmean (CV) [1, 3]: 1987 (8%) ng∙h/mL
AUC0–t, Gmean (CV) [1, 3]: 1985 (8%) ng∙h/mL
AUC (zero to infinity), Gmean (CV) [1, 3]: 2099 (7%) ng∙h/mL
Cmax, Gmean (CV) [1, 3]: 629.7 (27%) ng/mL
t1/2, Amean ± SD [1, 3]: 3.216 ± 0.3938 h
tmax, median (min, max) [1, 3]: 0.940 (0.750, 1.080) h
M/P ratio (metabolite to parent), AUC ([1]; multiple dose): 1.73
M/P ratio (metabolite to parent), AUC0–12 ([1]; multiple dose): 1.64
M/P ratio (metabolite to parent), AUC0–t ([1]; multiple dose): 1.65
M/P ratio (metabolite to parent), Cmax ([1]; multiple dose): 0.56
AUC0–12, Gmean (CV) [1, 4]: 1092 (124%) ng∙h/mL
AUC0–t, Gmean (CV) [1, 4]: 1306 (94%) ng∙h/mL
AUC (zero to infinity), Gmean (CV) [1, 4]: 1557 (60%) ng∙h/mL
Cmax, Gmean (CV) [1, 4]: 316.5 (260%) ng/mL
t1/2, Amean ± SD [1, 4]: 10.18 ± 7.986 h
tmax, median (min, max) [1, 4]: 0.965 (0.900, 4.000) h
M/P ratio (metabolite to parent), AUC ([1]; single dose): 1.40
M/P ratio (metabolite to parent), AUC0–12 ([1]; single dose): 1.23
M/P ratio (metabolite to parent), AUC0–t ([1]; single dose): 1.36
M/P ratio (metabolite to parent), Cmax ([1]; single dose): 0.53
SMILES: CC#CC(=O)NCCCC(=O)c1nc(-c2ccc(C(=O)Nc3ccccn3)cc2)c2c(N)nccn12 [ACP‐5862]
Potency for BTK inactivation relative to the parent agent acalabrutinib (BTK): approximately 50%
